The values that follow come from ChEMBL document CHEMBL5113540, “Fragment-Based Discovery of a Novel, Brain Penetrant, Orally Active HDAC2 Inhibitor” (ACS Med Chem Lett, 2022).

Calls of active or inactive are those of the source. No cut-off for these calls is given here.

Series [1] concerns the target T1, Histone deacetylase 2 (Homo sapiens, UniProt Q92769). The experiment in a line: Inhibition of full length recombinant C-terminal FLAG-tagged human HDAC2 expressed in baculovirus-infected Sf9 cells measured for 2 hrs by fluorescence-based assay.
Series [2] concerns the target T1, Histone deacetylase 2. Put plainly: Inhibition of full length recombinant C-terminal FLAG-tagged human HDAC2 expressed in baculovirus-infected Sf9 cells at 2 mM measured for 2 hrs by fluorescence-based assay relative to control.
The target in series [3] is T1, Histone deacetylase 2. Put plainly: Inhibition of full length recombinant C-terminal FLAG-tagged human HDAC2 expressed in baculovirus-infected Sf9 cells at 1 mM measured for 2 hrs by fluorescence-based assay relative to control.
Series [4] has as its system SK-N-SH. The experiment in a line: Inhibition of […] in human SK-N-SH cells assessed as increase in histone H4K12 acetylation level at 3 to 12 uM measured after 48 hrs by immunochemical detection based analysis. It counts as cell-based. The following applies: dose 3-12 µM.
A short description of series [5]: Cmax in C57BL/6 mouse brain at 100 mg/kg, po measured upto 6 hrs by LC-ESI-MS/MS analysis. It is filed as ADME, organism-based. Further details: dose 100 mg/kg, time < 6 hrs, route po.
Series [6] is described as follows: Half life in C57BL/6 mouse plasma at 30 mg/kg, po measured upto 24 hrs by LC-ESI-MS/MS analysis. It is filed as ADME, organism-based.
A short description of series [7]: Cmax in C57BL/6 mouse brain at 30 mg/kg, po measured upto 24 hrs by LC-ESI-MS/MS analysis. Also noted: dose 30 mg/kg, time < 24 hrs, route po. It is filed as ADME, organism-based.
For series [8], the system named is SK-N-SH. The experiment in a line: Inhibition of […] in human SK-N-SH cells assessed as increase in histone H3K9 acetylation level at 3 to 12 uM measured after 48 hrs by immunochemical detection based analysis. It counts as cell-based. To be noted: dose 3-12 µM.
Series [9] is described as follows: Half life in C57BL/6 mouse plasma at 100 mg/kg, po measured upto 24 hrs by LC-ESI-MS/MS analysis. It is filed as ADME, organism-based.
The nature of series [10]: Cmax in C57BL/6 mouse plasma at 100 mg/kg, po measured upto 24 hrs by LC-ESI-MS/MS analysis. Further details: time < 24 hrs, dose 100 mg/kg, route po. It is filed as ADME, organism-based.
A short description of series [11]: Half life in C57BL/6 mouse brain at 100 mg/kg, po measured upto 6 hrs by LC-ESI-MS/MS analysis. It is filed as ADME, organism-based.
The subject of series [12] is Mus musculus. Put plainly: In vivo inhibition of HDAC2 in C57BL/6 mouse assessed as increase in histone H4K12 acetylation in brain at 100 mg/kg, po measured after 4 hrs by immunochemical detection method. It counts as functional, organism-based.
Series [13] in a line: Lipophilicity, log D of the compound at pH 7.4. It counts as physicochemical. To be noted: buffer.
Series [14] is described as follows: AUC (0 to infinity) in C57BL/6 mouse brain at 100 mg/kg, po measured upto 6 hrs by LC-ESI-MS/MS analysis. Further details: dose 100 mg/kg, time < 6 hrs, route po. It counts as ADME, organism-based. The following applies: in vivo.
Series [15] in a line: AUC (0 to infinity) in C57BL/6 mouse brain at 30 mg/kg, po measured upto 24 hrs by LC-ESI-MS/MS analysis. Further details: dose 30 mg/kg, time < 24 hrs, route po. To be noted: in vivo. It is filed as ADME, organism-based.
The nature of series [16]: AUC (0 to infinity) in C57BL/6 mouse plasma at 30 mg/kg, po measured upto 24 hrs by LC-ESI-MS/MS analysis. It counts as ADME, organism-based. Further details: time < 24 hrs, dose 30 mg/kg, route po.
Series [17] can be described thus: Cmax in C57BL/6 mouse plasma at 30 mg/kg, po measured upto 24 hrs by LC-ESI-MS/MS analysis. Further details: time < 24 hrs, dose 30 mg/kg, route po. It counts as ADME, organism-based.
A short description of series [18]: AUC (0 to infinity) in C57BL/6 mouse plasma at 100 mg/kg, po measured upto 24 hrs by LC-ESI-MS/MS analysis. It is filed as ADME, organism-based. Also noted: time < 24 hrs, dose 100 mg/kg, route po.
Series [19] is described as follows: Half life in C57BL/6 mouse brain at 30 mg/kg, po measured upto 24 hrs by LC-ESI-MS/MS analysis. It counts as ADME, organism-based.
Series [20] is described as follows: Unbound brain-to-plasma concentration ratio in C57BL/6 mouse by LC-MS/MS analysis. To be noted: read-out: K(p,uu,brain). It counts as ADME.

T1 sequence (Q92769 whole entry): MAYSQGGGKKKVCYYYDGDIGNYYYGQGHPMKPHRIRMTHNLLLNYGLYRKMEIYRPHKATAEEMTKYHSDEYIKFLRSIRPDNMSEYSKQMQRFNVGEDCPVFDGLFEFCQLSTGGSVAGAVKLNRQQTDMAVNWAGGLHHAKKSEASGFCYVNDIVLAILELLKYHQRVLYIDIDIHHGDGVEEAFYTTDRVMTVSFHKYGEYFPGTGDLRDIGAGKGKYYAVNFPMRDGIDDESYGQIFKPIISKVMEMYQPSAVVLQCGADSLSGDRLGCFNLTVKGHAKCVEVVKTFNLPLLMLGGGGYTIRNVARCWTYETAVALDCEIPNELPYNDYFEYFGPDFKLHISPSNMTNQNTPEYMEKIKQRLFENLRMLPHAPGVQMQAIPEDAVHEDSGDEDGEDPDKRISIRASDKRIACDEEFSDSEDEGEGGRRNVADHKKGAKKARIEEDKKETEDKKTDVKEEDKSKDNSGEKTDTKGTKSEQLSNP

For orientation: IC50 means the concentration at which inhibition is half-maximal. Turning to `N#Cc1cccnc1N1CCN(C(=O)[C@H]2C[C@@H](c3ccccc3)CN2)CC1`, in [1], the IC50 was determined as 1.8 µM.
On the same count and under the same terms, the same measure for `O=C([C@H]1C[C@@H](c2ccc(Cl)cc2)CN1)N1Cc2ccccc2C1`: 4 µM.
Same read-out and setting: the same measure for `O=C1CCC(c2ccc([C@H]3CN[C@@H](C(=O)N4Cc5ccccc5C4)C3)cc2)N1` (stereo in doubt; 11): 18 µM; for `O=C([C@H]1C[C@@H](c2cccc(Cl)c2)CN1)N1Cc2ccccc2C1`: 2.8 µM.
On the same count and under the same terms, the same measure for `N[C@H](CCc1ccccc1)C(=O)N1CCCC1`: 110 µM.
What is called inhibition is the percentage by which the read-out fell short of the control. Regarding `CN(C)C(=O)[C@H](N)CCc1ccccc1`, the inhibition in [2] was 64%.
On to `O=C(O)Cc1ccccc1`, for which the inhibition in series [3] came to 40%.
With `O=C([C@H]1C[C@@H](c2ccccc2)CN1)N1CCCC1`, the 50% inhibitory concentration (IC50) in series [1] amounted to 26 µM.
Consider `O=C1CCC(c2ccc(Cl)cc2)N1` (centres undefined), for which, in series [3], the inhibition is 9%.
On to `CN(C)C(=O)C(N)Cc1ccc(F)cc1` (centres undefined), for which, in series [1], the IC50 was 1000 µM. Besides, the inhibition in series [3] is 58%.
Turning to `O=C([C@H]1C[C@@H](c2ccccc2)CN1)N1CCN(c2nccc3ccsc23)CC1`, the half-inhibitory concentration (IC50) in [1] is 1.7 µM.
As for `Cc1cc(O)cc(=O)o1`, the inhibition in series [3] amounted to 4%.
On to `N#Cc1cccnc1N1CCN(C(=O)[C@H]2C[C@@H](c3cccc(Cl)c3)CN2)CC1`, for which, in series [1], the half-inhibitory concentration (IC50) is 0.85 µM.
Still for that read-out and setting: the same measure for `O=C1CCC(c2ccc([C@H]3CN[C@@H](C(=O)N4Cc5ccccc5C4)C3)cc2)N1` (stereo in doubt; 10): 26 µM.
Usually Cmax stands for the maximum level reached in the sampled fluid or tissue. As usually defined, the half-life is the time in which the quantity being followed falls by half. Read a high half-life as slow loss. The logD is lipophilicity at a set pH, counting ionised and neutral species. A high value points to higher lipophilicity. The AUC(0-inf) is the area under the concentration-time curve extrapolated to infinity. The low end stands for low exposure, the high end for high exposure. In the case of `O=C([C@H]1C[C@@H](c2cccc(Cl)c2)CN1)N1CCN(c2nccc3ccsc23)CC1`, the inhibition entry in [4], in [8] and in series [12] was “Active” in each case. For the same compound, the Cmax in [5] came out at 3400 ng/g; in series [7], 2300 ng/g; in [10], 4000 ng/mL; in series [17], 2400 ng/mL. Further, the half-life was 1.1 h in series [6], 3.5 h in series [9], 2.7 h in series [11] and 0.9 h in [19]. In addition, the 50% inhibitory concentration (IC50) in series [1] worked out at 0.5 µM. The compound further registered a logD in series [13] of 3.9. For the same compound, the values for the AUC in series [14] and in [15] were 13.1 µg·h/g and 4 µg·h/g, respectively. Moreover, the total exposure AUC(0-inf) stood at 4200 ng·h/mL in series [16] and 18500 ng·h/mL in [18]. Also, the Kp uu in series [20] worked out at 0.36.
Consider `O=C([C@H]1C[C@@H](c2ccccc2)CN1)N1Cc2ccccc2C1`, for which the half-maximal inhibitory concentration (IC50) in series [1] was found to be 6.4 µM.
